Laboratory results: US20210155611A1, “THE SALTS OF A COMPOUND AND THE CRYSTALLINE FORMS THEREOF” (Flutchison Medipharma Limited, priority 2017, published 2021)
Converted amounts (≈) assume the structure as drawn. “Also recorded” adds a separate entry of the source.

Legend:
Format in all cases: physicochemical
[1] = Solubility test of Form I and free base in different dissolution media; conditions: for solubility at 24 h: thermodynamic from solid, saturated for 24 hours
Protocol: Determination method: excess amount of Form I sample of compound of Formula A and its free base (compound 4-ethyl-N-(4-((3-ethynylphenyl)amino)-7-methoxyquinazolin-6-yl) piperazine-1-carboxamide) were suspended in different dissolution media respectively, and saturated for 24 hours under shaking at constant temperature, then filtered. The filtrates were used for determining solubility of the samples. The buffers of different pH, simulated gastric fluid, and simulated intestinal fluid were prepared according to the US pharmacopeia (USP40-NF35).

[2] = Stability of Form I under high temperature, high humidity and illumination conditions; conditions: for Purity A %: HPLC
Protocol: Determination method: the test sample of Form I of compound of Formula A was placed on a culture dish, which was uncovered and placed in sealed clean containers. The containers were placed under a temperature of 60° C. and an illumination of 4500 lx±500 lx respectively for 10 days; or the containers were placed under a temperature of 25° C. and a relative humidity of 92.5%%±5% and under a temperature of 40° C. and a relative humidity of 75%±5% respectively for 2 weeks.
Then sampled and investigated for the purity (using HPLC analysis) and crystalline form (using X-ray powder diffraction analysis) of the sample.

Hygroscopicity of Form I = assay: Hygroscopicity of Form I
Protocol: Determination method: the test sample of Form I was weighed and placed on a culture dish, which was uncovered and placed in a sealed clean container with the relative humidity of 92.5%. Then the container was placed at room temperature for 10 days. Then sampled, weighed the sample after placed for 10 days, and compared with the weight of the sample before the test. Thereby the percentage of weight gain by hygroscopicity of the sample was calculated. The crystalline form was also investigated (using X-ray powder diffraction analysis).

[3] = aqueous buffer, pH 1.2 buffer, 25° C.
[4] = aqueous buffer, pH 2.1 buffer, 25° C.
[5] = aqueous buffer, pH 4.5 buffer, 25° C.
[6] = aqueous buffer, pH 6.8 buffer, 25° C.
[7] = aqueous buffer, pH 7.4 buffer, 25° C.
[8] = fassgf or other biorelevant, Simulated intestinal fluid (SIF), 20° C.
[9] = Simulated gastric fluid (SGF), 20° C.

Structure (SMILES)	Solubility compared with that of the free base, in words ([1]; data of Table 4, succinate)	Purity A % ([2]; 0 day (Table 1))	Purity A % ([2]; 0 day (Table 2))	Purity A % ([2]; 60° C., 10 days)	Purity A % ([2]; 75 ± 5% RH/40° C., 2 weeks)	Purity A % ([2]; 92.5 ± 5% RH/25° C., 2 weeks)	Purity A % ([2]; 4500 lx ± 500 lx, 10 days)	Stability (chemical purity and crystalline form), conclusion in words ([2]; high temperature and illumination 10 days, high humidity 2 weeks)	Crystal form after 10 days (Hygroscopicity of Form I; 92.5% RH, 25° C., 10 days, X-ray powder diffraction)	Weight gain after 10 days (%) (Hygroscopicity of Form I; 92.5% RH, 25° C., 10 days, succinate)	Hygroscopicity, conclusion in words (Hygroscopicity of Form I; high humidity condition for 10 days)	solubility at 24 h [1, 3]	solubility at 24 h [1, 4]	solubility at 24 h [1, 5]	solubility at 24 h [1, 6]	solubility at 24 h [1, 7]	solubility at 24 h ([1]; aqueous buffer, pH 8.0 buffer, 25° C.)	solubility at 24 h [1, 8]	solubility at 24 h ([1]; Distilled water, 20° C.)	solubility at 24 h [1, 9]
C#Cc1cccc(Nc2ncnc3cc(OC)c(NC(=O)N4CCN(CC)CC4)cc23)c1.O=C(O)CCC(=O)O [compound of Formula A, 4-ethyl-N-(4-((3-ethynylphenyl)amino)-7-methoxyquinazolin-6-yl)piperazine-1-carboxamide succinate]	significantly increased; also recorded: significantly higher																			
C#Cc1cccc(Nc2ncnc3cc(OC)c(NC(=O)N4CCN(CC)CC4)cc23)c1.O=C(O)CCC(=O)O [Form I, 4-ethyl-N-(4-((3-ethynylphenyl)amino)-7-methoxyquinazolin-6-yl)piperazine-1-carboxamide succinate]		99.37%	98.98%	98.68%	99.08%	98.98%	99.29%	stable	not changed	0.01%	non-hygroscopic	103000 µg/mL	15500 µg/mL	10000 µg/mL	253 µg/mL	46.1 µg/mL	0.5 µg/mL	253 µg/mL	803 µg/mL	103000 µg/mL
C#Cc1cccc(Nc2ncnc3cc(OC)c(NC(=O)N4CCN(CC)CC4)cc23)c1 [free base, 4-ethyl-N-(4-((3-ethynylphenyl)amino)-7-methoxyquinazolin-6-yl)piperazine-1-carboxamide]												38500 µg/mL (≈ 89400 µM)	5450 µg/mL (≈ 12700 µM)	5.21 µg/mL (≈ 12.1 µM)	0.84 µg/mL (≈ 1.95 µM)	0.41 µg/mL (≈ 0.952 µM)		0.84 µg/mL (≈ 1.95 µM)	1 µg/mL (≈ 2.32 µM)	38500 µg/mL (≈ 89400 µM)
